Patent US10745715B2, “Method and means for purifying retroviral vectors” (UCL BUSINESS PLC, priority 2014, dated 2020)
No end group written: not given here.

What was measured:
Streptavidin [1] = target: T1, Streptavidin (Streptomyces avidinii, UniProt P22629); test: Streptavidin-APC staining of HEK 293T cells transfected with tag constructs, flow cytometry; type: cell-based; conditions: 48 hrs post-transfection
Description: A. Schematic diagram of the amino acid sequences of the six Streptavidin-binding tags on a CD8 stalk. These constructs co-express the green fluorescent protein (eGFP) via an internal ribosome entry sequence (IRES) downstream of the first open reading frames. B. The constructs were transfected into HEK 293T cells and stained with Streptavidin-APC 48 hours post-transfection and analysed by flow-cytometry. Binding of streptavidin (y-axis) is plotted against eGFP signal.
FIG. 3: Transfection of 293T cells with StreptagII, Flankedccstreptag and ccstretag epitopes in three different formats shown in FIG. 2. 293T cells were also transfected with an irrelevant protein (HA1-TCR beta) co-expressed with eGFP as a negative control. […] Tags were expressed on either a CD8 stalk, a GPI anchor (×1) with one open reading frame or with a GPI anchor (×2) with two copies of the open reading frame. 293T cells transfected with the tagging proteins were stained with Streptavidin APC. The cells were all analysed by flow-cytometry and Streptavidin APC binding (y-axis) is plotted against eGFP signal (x-axis).
An expression construct coding for a signal peptide attached to the amino terminal of theses tags was generated. In addition, the carboxy terminal of these peptide tags was attached to the CD8 stalk, CD8 transmembrane domain and a short part of the CD8 endodomain sufficient to anchor the protein to the membrane. To test their binding to streptavidin, HEK 293T cells were transfected with each construct individually and 48 hrs post-transfection cells were harvested and stained with Streptavidin conjugated to the fluorophore Allophycocyanin (APC) (FIG. 1B).
The optimal format to express these tags on the cell surface for streptavidin binding was then investigated. Additional plasmids were constructed where these tags are expressed on a GPI anchor with one copy of the tags' open reading frames and GPI anchor with two copies of the open reading frames separated by a CD8-based linker (the annotated amino acid sequences of these constructs are depicted in FIG. 2). The binding of these tags was compared with that of the original constructs where the epitopes were placed on a CD8 stalk.
To test their binding to Streptavidin, HEK 293T cells were transiently transfected with the constructs and stained 48 hrs post-transfection with Streptavidin-APC (FIG. 3).

Streptavidin [2] = target: T1, Streptavidin; conditions: biotin mimicking peptide binding streptavidin; read-out: affinity; cited from earlier work
K562 cells [3] = test: Sorting of K562 cells expressing Flankedccstreptag formats with streptavidin beads; type: cell-based
Description: Transduced K562 were close to 100% positive for the transgenes after transduction. Positive cells were mixed with non-transduced (NT) K562 pre-sorting. The mixture was incubated with both streptavidin dynabeads (Life technologies, Cat. No. 65601) and streptavidin-microbeads (Miltenyi, Cat. No. 130-048-101) as per manufacturer protocol. The sorted cellular fraction was collected as well as flow-through fraction for both protocols. Sorting was assessed by streptavidin-APC staining and for eGFP positive cell populations 9 days post sorting by flow cytometry.
To establish that the two versions of Flankedccstreptag are able to purify lentivirus from cellular supernatant, an initial experiment was carried out involving sorting of K562 cells expressing these tags on their surface using streptavidin beads. We reasoned that if the tags could attach to a streptavidin matrix while expressed on cells with sufficient stability to allow sorting of expressing cells, they should be suitable for lentiviral capture too.
K562 cells were retrovirally transduced to express the two tags and transduction efficiencies were determined by eGFP expression using flow cytometry (FIG. 4 Transduced K562 plot). Subsequently, transduced cells were mixed with non-transduced K562 to assess the efficiency of sorting using two streptavidin-beads sourced from Life technologies (Dynabeads) and Miltenyi (Microbeads). […]

NT-293T cells = type: cell-based, human
K562 cells [4] = test: Sorting of K562 cells expressing flankedccstreptag, RQR8, GST or H6 tags with their respective beads; type: cell-based; conditions: for eGFP positive cells in the flow-through fraction / eGFP positive cells in the sorted fraction: K562, respective beads, 12 days post sorting; for eGFP positive cells, pre-sorted population: retrovirally transduced K562 before sorting
Description: K562 cells were retrovirally transduced with the four constructs individually. Subsequently cell populations were sorted with their respective beads as per manufacturer protocol. Protein-A Dynabeads were previously incubated with clinical grade human-rituximab over-night at 4 C and washed 5× with PBS to remove any unbound rituximab before adding it to the cells. Sorted fractions were collected as well as the flow through for all sorting. Fractions were assessed for positive cells based on eGFP expression by flow cytometery with a blank channel to account for auto fluorescence from dead cells.
The efficiencies of the different tags (GST, RQR8 and His-tag) at purifying lentiviral particles from cellular media, was tested using the approach previously described for flankcedccstreptag (see Example 2), i.e. by sorting K562 cells expressing these tags on their surface. K562 cells were retrovirally transduced with flankedccstreptag, GST, RQR8 and H6 epitopes separately (FIG. 8, Pre-sorted column). Transduced cells represented a minority of the total population based on eGFP expression; therefore cells were not mixed with NT-K562 cells. Populations expressing flankedccstreptag at 10.5%, RQR8 at 9.75%, GST at 22.7% and H6 […] were thereafter sorted with Streptavidin Dynabeads, human rituximab previously incubated with protein-A bead, Glutathione magnetic beads and His-tag Dynabeads respectively.
Collected fractions were assessed for positive cells 12 days-post sorting. […] Moreover, K562 cells expressing GST epitope were successfully purified from pre-sorting population with 91% eGFP positive cells present in the sorted fraction. […] Conversely, K562 expressing H6 sorting was less successful as only 26.1% of cells in the sorted fraction were eGFP positive while 71.1% of cells were eGFP negative. Additionally, 59.2% eGFP positive cells were in the flow-through. The GST and RQR8 tags therefore show the best activity with regard to purifying viral particles from cellular supernatant in the same manner as flankcedccstreptag epitope.

T1 sequence (P22629 25-183): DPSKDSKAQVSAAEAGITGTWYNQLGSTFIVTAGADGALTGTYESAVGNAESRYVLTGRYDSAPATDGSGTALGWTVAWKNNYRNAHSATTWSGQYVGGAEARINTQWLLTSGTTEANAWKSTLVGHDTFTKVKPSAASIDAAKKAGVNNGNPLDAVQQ

For “biotin mimicking peptide DVEAWLGAR (SEQ ID NO: 36) (Biotin mimicking peptide, short nanotag)”, the “binding to Streptavidin-APC” value (Streptavidin [1]; tag on CD8 stalk) is listed as “did not exhibit any binding” and the Kd (Streptavidin [2]) is listed as 17 nM.

For “flankedccstreptag-d8-x2-GPI: two Flankedccstreptag copies separated by CD8-based linker (SEQ ID NO: 5) on a GPI anchor (ECHPQGPPCIEGRKSSGGGGSPAPRPPTPAPTIASECHPQGPPCIEGRKS; cysteine pairing not given here; also: on a GPI anchor, small tags and cut ends left off)”, the “sorting of tag-expressing K562 cells from mixture with NT K562” value (K562 cells [3]; streptavidin microbeads (Miltenyi)) was “successful” and the “sorting of tag-expressing K562 cells from mixture with NT K562” value (K562 cells [3]; streptavidin-dynabeads (Life technologies), eGFP) was “successfully sorted”.

In the case of “biotin mimicking peptide WSHPQFEK (SEQ ID NO: 1) [streptagll]”, the “binding to Streptavidin-APC” value (Streptavidin [1]; tag on CD8 stalk) is given as “successfully bound” and the Kd (Streptavidin [2]) is given as 72000 nM.

In the case of “disulphide constrained biotin mimicking peptide CHPQGPPC (SEQ ID NO: 3) [ccstreptag]”, the “binding to Streptavidin-APC” value (Streptavidin [1]; tag on CD8 stalk) is given as “successfully bound” and the Kd (Streptavidin [2]) is given as 230 nM.

In the case of “Flankedccstreptag: biotin mimic tag AECHPQGPPCIEGRK (SEQ ID NO: 2) expressed at the cell surface as tagging protein (Biotin mimicking peptide, flankedccstreptag)”, the “binding to Streptavidin-APC” value (Streptavidin [1]; tag on CD8 stalk) is reported as “successfully bound”, the “binding to Streptavidin-APC” value (Streptavidin [1]; tag on GPI anchor, two open reading frames (x2)) is reported as “higher binding efficiency than StreptagII and ccstreptag” and the “transduction efficiency, neat supernatant” value (NT-293T cells) is reported as “high transduction efficiencies”. For the same substance, the “eGFP positive cells in the flow-through fraction” value (K562 cells [4]) was “absence of eGFP positive cells”, the “eGFP positive cells in the sorted fraction” value (K562 cells [4]) was 93.6% and the “eGFP positive cells, pre-sorted population” value (K562 cells [4]) was 10.5%.

In the case of “biotin mimicking peptide DVEAWLDERVPLVET (SEQ ID NO: 35) (Biotin mimicking peptide, long nanotag)”, the “binding to Streptavidin-APC” value (Streptavidin [1]; tag on CD8 stalk) is given as “did not exhibit any binding” and the Kd (Streptavidin [2]) is given as 3.6 nM.

With “RQR8: tag with rituximab-binding and Qbend10 epitopes on CD8 stalk, SEQ ID NO: 21” the “transduction efficiency, neat supernatant” value (NT-293T cells) was “high transduction efficiencies”, the “eGFP positive cells in the flow-through fraction” value (K562 cells [4]) was “absence of eGFP positive cells” and the “eGFP positive cells in the sorted fraction” value (K562 cells [4]) was 89.4%. The “eGFP positive cells, pre-sorted population” value (K562 cells [4]) was 9.75%.
